Legend:
[1] = Partition coefficient of HMPAO and MRP20 (octanol/buffer, absorbance); type: physicochemical
Method: 4. Measurement of Partition Coefficient of HMPAO and MRP20
20 μl of HMPAO or MRP20 solutions adjusted to 8 mM with a physiology saline solution was added to 500 μl of octanol and 500 μl of a HEPES buffer solution (pH 7.0) or Na2HPO4—NaOH buffer solution (pH 12.0). The mixture was allowed to stand still after stirring. Absorption of the octanol layer and the aqueous layer was measured, and the lipophilic properties of the two complexes were compared.

[2] = Stability of 99mTc complex in an aqueous solution (radiochemical purity over time); type: physicochemical; conditions: for radiochemical purity: after purification by RP-HPLC, after 24 hours
Method: 5. Stability of ^99mTc Complex in an Aqueous Solution
In order to compare the stability of ^99mTc-HMPAO and ^99mTc-MRP20 in an aqueous solution, ^99mTc-HMPAO solution was diluted with 50 mM ammonia buffer solution (pH 9.4) into the final ligand concentration of 1 mM. The mixture was incubated in a water bath of 25° C. or 37° C., and radiochemical purity was determined by the above-mentioned analyzing methods after predetermined time (0.5, 2, 4, 8, or 24 hours). ^99mTc-MRP20 aqueous solution was diluted with 50 mM phosphate buffer solution (pH 8.3), and the similar operations were effected.
For the purpose of examining the effect of free ligands on the stability, ^99mTc complex solution was purified by RP-HPLC, and the purified ^99mTc complex solution eluted in 100% acetonitrile was mixed and diluted in the ratio of 1:1 with a buffer solution, and changes over time of the radiochemical purity of the complex was examined similarly as for the complex before purification.

With `C/C(=N\O)C(C)NCC(C)(C)CNC(C)/C(C)=N/O` (centres unmarked) [HMPAO, hexamethyl propyleneamine oxime, reference compound] the “Absorbance transferred to the octanol layer” value ([1]; octanol / buffer (pH 7.0 or pH 12.0)) was “below the detection limit”.
With `CC(=O)C=C(C)NCCNCc1ccc[nH]1` [MRP20, N-[2-(1H-pyrrolylmethyl)]-N′-(4-penten-3-one-2)-ethane-1,2-diamine] the “ratio of absorbances in the octanol layer and the water layer” value ([1]; pH of the buffer 7.0) was 2.1±0.7 and the “ratio of absorbances in the octanol layer and the water layer” value ([1]; pH of the buffer 12.0) was 5.0±1.6.
In the case of `C/C(=N\[O-])[C@@H](C)[N-]CC(C)(C)C[N-][C@H](C)/C(C)=N/O.[O]=[99Tc+3]` [^99mTc-HMPAO, ^99mTc-hexamethyl propyleneamine oxime, reference compound], the radiochemical purity ([2]; 25° C.) is reported as 59% and the “radiochemical purity remaining (decomposed to)” value ([2]; unpurified complex, 30 minutes after complex formation) is reported as “about 40%”.
With “^99mTc-N-[2-(1H-pyrrolylmethyl)]-N′-(4-penten-3-on-2)-ethane-1,2-diamine [^99mTc-MRP20]” the radiochemical purity ([2]; 25° C.) was 6%, the “radiochemical purity remaining (decomposed to)” value ([2]; unpurified complex, 25° C., 4 hours after complex formation) was “about 40%” and the radiochemical purity retained ([2]; unpurified complex, 2 hours after complex formation) was “about 70%”.
